Columns and labels:
[1] = tested on: Day 10 CD34+ iHE sorted cells; experiment: stromal-free NK cell differentiation on plate-bound DLL4, hiPSC-derived iHE; type: cell-based, human; conditions: plate bound DLL4 vs control protein; CD45+ gating
[2] = tested on: umbilical cord blood CD34+ cells; experiment: stromal-free NK cell differentiation on plate-bound DLL4, umbilical cord blood CD34+ cells; conditions: plate-bound DLL4 vs stromal-based and stromal-free control cultures; 10-15 days
Procedure: Specific to NK cells, enriched umbilical cord blood CD34+ cells were plated in iNK-A serum-free differentiation media containing SCF, Flt3L, IL3, IL15 and IL7 in culture plates containing DLL4 protein or control protein. After 5 days the iNK-B medium was maintained to complete NK cell differentiation. After approximately 10-15 days of culture, the culture was assessed for the generation of NK cell progenitors and the absence of myeloid cells. CD56, CD7 and CD161 are the first cell surface markers to be expressed during NK cell development. CD11b and CD14 are cell surface markers expressed on myeloid cell subsets. FIG. 29 depicts stromal-free differentiation of umbilical cord blood CD34+ cells towards NK cells. […] Early NK lineage markers identify the presence of proNK cells as defined by CD56, CD7 and CD161 and the absence of myeloid markers CD11b and CD14.

hiPSCs = experiment: generation of CD34+ HE from hiPSC monolayer differentiation, flow cytometry at about D10; type: cell-based, human
Procedure: The above iHSC platform was further optimized for hematopoietic lineage cells differentiation. To initiate differentiation towards the hematopoietic lineage, hiPSCs were seeded as a monolayer on Day (D) 0 in the maintenance medium and allowed to adhere and expand for about 24 hours. At this point, the maintenance medium was removed and replaced with base medium without maintenance factors at D1. Hematopoietic differentiation was initiated at around D2 by switching the culture medium to iCD34-A (see FIG. 12). […] The monolayers were maintained until around D5-D6 at which point they were dissociated into single cells and seeded as a low density monolayer in iCD34-C medium until differentiation around D10. Low oxygen tension (2-10% O2) was maintained from the onset of hematopoietic differentiation around D2 up until around D10 of differentiation.
During the culture process, the directed differentiation towards the hematopoietic lineage was monitored by the dissociation of the monolayers into single cells and analysis for the surface marker expression of CD34, and optionally, CD43, CD45, CXCR4 and CD73 (FIG. 15A). At around D8 of differentiation, the appearance of a cell population representing HE was observed by the cell surface expression signature CD34+. CD43−CXCR4−CD73− was also observed in the CD34+ cells. The CD34+ population was maintained until around D10 (FIG. 15A). At D10, which time point can be shortened to about D9 or extended until about D12, the cells were dissociated into single cells and the CD34+ HE population was sorted by FACS using a BD FACS Aria for further analysis and functional assessment. […]
To optimize the efficient generation of HE from hiPSCs after around 10 days of differentiation several parameters were examined. The optimal plating density of the monolayers at DO of differentiation was assessed by plating increasing amounts of hiPSCs from 7.5×10^4/well to 1.5×10^5/well on matrigel™-coated 6 well culture dishes and then analyzing the generation of the CD34+ HE population at about D10. […]
The effect of the concentration of BMP4 modulation during the initial stages of hematopoietic differentiation on the generation of HE was assessed by treating the cultures with increasing concentrations of BMP4 ranging from 0 ng/ml to 30 ng/ml from about D2 to about D6 of differentiation. The generation of HE at D10 was assessed by the detection of the CD34+ HE population.
The Wnt pathway activator CHIR99021 is responsible for the induction of the definitive hematopoetic program from hiPSCs. The effect of the modulation of CHIR during the induction phase of the hematopoietic differentiation protocol was assessed by treating the cultures with increasing concentrations of CHIR from about D3.75 to about D6. […]

[3] = CHIR from about D3.75 to about D6

DLL4: Notch activator, plate-bound DLL4 protein
differentiation of NK cell progenitors and myeloid cells [1]: supports the differentiation of CD56+CD7+CD161+ NK cell progenitors but not CD11b+myeloid cells
differentiation of CD56+CD7+CD161+ NK cell progenitors [2]: supports a more rapid and efficient differentiation of CD56+CD7+CD161+ NK cell progenitors

IGF1: insulin-like growth factor 1
effect of addition of IGF1 and EPO on percentage of HE at around D10 (hiPSCs; IGF1 and EPO added together at Day 8): decreases the percentage of HE

Cc1c[nH]c(-c2cnc(NCCNc3ccc(C#N)cn3)nc2-c2ccc(Cl)cc2Cl)n1 [CHIR99021, reference compound]
effect of increasing CHIR99021 concentration on percentage of HE subpopulation (hiPSCs; [3]): decreases the percentage of the HE subpopulation
effect of increasing CHIR99021 concentration on total percentage of CD34+ cells (hiPSCs; [3]): increases the total percentage of CD34+ cells

B1: BMP4: bone morphogenetic protein, BMP pathway activator (protein, UniProt P12644 293-408, looked up)
Bone morphogenetic protein 4: SPKHHSQRARKKNKNCRRHSLYVDFSDVGWNDWIVAPPGYQAFYCHGDCPFPLADHLNSTNHAIVQTLVNSVNSSIPKACCVPTELSAISMLYLDEYDKVVLKNYQEMVVEGCGCR
optimal concentration of BMP4 for HE population at D10 (hiPSCs; BMP4 0 ng/ml to 30 ng/ml from about D2 to about D6, CD34+ HE at D10): about 3 ng/mL
